In publication PMC11217349, “Development of Nurr1 agonists from amodiaquine by scaffold hopping and fragment growing” (Communications Chemistry, 2024):
Where “and” joins values, the source holds several entries; their conditions need not be identical. Identical values can stand only once.

Tests used:
PPARα = biological target: T1, PPARα (Homo sapiens, UniProt Q07869); assay: Gal4-hybrid selectivity assay PPARα; type: cell-based; conditions: 3 µM; reference agonist = 100%
T1 construct: chimeric receptors composed of the Gal4-DBD and the hinge region and LBD; expressed in transfected cells; host or cells: HEK293T
T1 sequence (Q07869 239-466 limits assumed): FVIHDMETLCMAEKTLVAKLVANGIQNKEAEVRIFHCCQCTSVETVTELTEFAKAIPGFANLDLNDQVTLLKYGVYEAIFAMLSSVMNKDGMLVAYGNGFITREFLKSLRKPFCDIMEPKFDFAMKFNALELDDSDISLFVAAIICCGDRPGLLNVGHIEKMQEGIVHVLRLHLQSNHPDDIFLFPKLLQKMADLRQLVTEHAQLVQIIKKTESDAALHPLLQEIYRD
Protocol: (§1) Nurr1 modulation was determined in a Gal4 hybrid reporter gene assay in HEK293T cells (German Collection of Microorganisms and Cell Culture GmbH, DSMZ) using pFR-Luc (Stratagene, La Jolla, CA, USA; reporter), pRL-SV40 (Promega, Madison, WI, USA; internal control) and pFA-CMV-hNurr1-LBD[14], coding for the hinge region and ligand binding domain of the canonical isoform of human Nurr1. […] After 24 h, the medium was changed to Opti-MEM without supplements, and cells were transiently transfected using Lipofectamine LTX reagent (Invitrogen, Carlsbad, CA, USA) according to the manufacturer’s protocol. Five hours after transfection, cells were incubated with the test compounds in Opti-MEM supplemented with penicillin (100 U/mL), streptomycin (100 μg/mL), and 0.1% DMSO for 16 h before luciferase activity was measured using the Dual-Glo Luciferase Assay System (Promega) according to the manufacturer’s protocol on a Tecan Spark luminometer (Tecan Deutschland GmbH, Crailsheim, Germany). Firefly luminescence was divided by Renilla luminescence and multiplied by 1000 resulting in relative light units (RLU) to normalize for transfection efficiency and cell growth. Fold activation was obtained by dividing the mean RLU of the test compound by the mean RLU of the untreated control. All samples were tested in at least three biologically independent experiments in duplicates. […]

PPARγ = biological target: T2, PPARγ (Homo sapiens, UniProt P37231); assay: Gal4-hybrid selectivity assay PPARγ; type: cell-based; conditions: 3 µM; reference agonist = 100%
T2 construct: chimeric receptors composed of the Gal4-DBD and the hinge region and LBD; expressed in transfected cells; host or cells: HEK293T
T2 sequence (P37231 238-503 limits assumed): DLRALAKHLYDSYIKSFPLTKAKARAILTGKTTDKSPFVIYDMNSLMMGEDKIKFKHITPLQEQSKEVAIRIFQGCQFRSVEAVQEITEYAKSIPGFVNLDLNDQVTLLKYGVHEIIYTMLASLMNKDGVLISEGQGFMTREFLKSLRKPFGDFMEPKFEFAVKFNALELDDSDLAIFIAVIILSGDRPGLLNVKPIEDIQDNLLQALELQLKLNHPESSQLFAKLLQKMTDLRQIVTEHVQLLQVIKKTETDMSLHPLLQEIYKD
Protocol: as §1

LXRα = biological target: T3, LXRα (Homo sapiens, UniProt Q13133); assay: Gal4-hybrid selectivity assay LXRα; type: cell-based; conditions: 3 µM; reference agonist = 100%
T3 construct: chimeric receptors composed of the Gal4-DBD and the hinge region and LBD; expressed in transfected cells; host or cells: HEK293T
T3 sequence (Q13133 209-447 limits assumed): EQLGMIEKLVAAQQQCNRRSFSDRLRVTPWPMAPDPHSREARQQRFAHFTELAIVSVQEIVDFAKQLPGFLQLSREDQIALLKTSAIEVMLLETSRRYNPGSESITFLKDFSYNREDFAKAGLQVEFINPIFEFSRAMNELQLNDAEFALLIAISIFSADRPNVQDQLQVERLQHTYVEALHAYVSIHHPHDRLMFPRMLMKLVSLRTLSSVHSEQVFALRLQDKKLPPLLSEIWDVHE
Protocol: as §1

RXRα = biological target: T4, RXRα (Homo sapiens, UniProt P19793); assay: Gal4-hybrid selectivity assay RXRα; type: cell-based; conditions: 3 µM; reference agonist = 100%
T4 construct: chimeric receptors composed of the Gal4-DBD and the hinge region and LBD; expressed in transfected cells; host or cells: HEK293T
T4 sequence (P19793 227-458 limits assumed): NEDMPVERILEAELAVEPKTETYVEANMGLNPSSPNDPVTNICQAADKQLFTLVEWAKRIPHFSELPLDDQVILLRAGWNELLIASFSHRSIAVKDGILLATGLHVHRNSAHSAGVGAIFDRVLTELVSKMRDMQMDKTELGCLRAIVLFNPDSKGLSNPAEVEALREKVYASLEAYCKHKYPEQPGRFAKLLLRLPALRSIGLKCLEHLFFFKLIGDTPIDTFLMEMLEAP
Protocol: as §1

Microsomal stability = type: in vitro ADME, rat; conditions: for AUC x10^5 (LC-MS peak area of 36 and its demethylated metabolites): incubation of 36 with rat liver microsomes, listed as 36-N(CH3)2
Protocol: To determine microsomal stability, test compounds (10 μM) were incubated in 100 mM potassium phosphate buffer at pH 7.4 (total volume of 100 µL) containing 0.5 mg/mL male rat liver microsomes (Sprague-Dawley, no. M9066, Merck KGaA, Darmstadt) and 1 mM NADPH for 0, 15, 30, or 60 min. At the end of the incubation time, microsomal activity was terminated by the addition of 500 µL MeCN and subsequent centrifugation at 1700 g for 5 min. A reaction mixture containing heat-inactivated microsomes (95 °C, 10 min) was prepared as a control for each compound. 5 µL supernatant of each sample was analyzed and the remaining concentrations of the respective test compounds at each time point were determined by LC-MS/MS on an API-3200-QTrap (Sciex) with an Agilent Technologies 1100 series setup including a binary pump (G1311A), a degasser (G1322A), and a Shimadzu SIL 20 A HT autosampler under the control of Analyst 1.6 (Sciex). A XBridge BEH C18 (3.5 µm, 150 mm×3 mm, Waters, protected with a 0.5 µm frit) stationary phase was used in combination with a gradient method starting with 0.1% formic acid in water (A) and MeCN (B) as mobile phase (A:B = 80:20) for 6 min going to A: B = 50:50 after 8 min. 5 µL of supernatant diluted in mobile phase starting conditions was loaded onto the column, separated at a flow rate of 400 µL/min, and detected and quantified per Area of MRM (multiple reaction monitoring) with the following transitions: m/z 381.797/145.000 (34); m/z 395.125/158.200 (36); m/z 409.822/131.000 (41); m/z 407.838/171.100 (42).

PPARδ = biological target: T5, PPARδ (Homo sapiens, UniProt Q03181); assay: Gal4-hybrid selectivity assay PPARδ; type: cell-based; conditions: 3 µM; reference agonist = 100%
T5 construct: chimeric receptors composed of the Gal4-DBD and the hinge region and LBD; expressed in transfected cells; host or cells: HEK293T
T5 sequence (Q03181 211-439 limits assumed): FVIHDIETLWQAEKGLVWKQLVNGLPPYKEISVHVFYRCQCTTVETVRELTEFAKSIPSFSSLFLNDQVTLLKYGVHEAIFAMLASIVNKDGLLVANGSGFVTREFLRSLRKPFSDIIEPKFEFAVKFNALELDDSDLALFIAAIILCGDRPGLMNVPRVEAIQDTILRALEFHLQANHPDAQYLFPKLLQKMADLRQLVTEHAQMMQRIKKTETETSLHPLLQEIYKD
Protocol: as §1

[1] = test system: HBEC-5i human brain endothelial cells; assay: In vitro blood-brain-barrier model; type: in vitro ADME; conditions: HBEC-5i trans-well, 10 µM, 60 min
Protocol: Permeation of test compounds through a human brain endothelial cell barrier was evaluated using the Corning Costar 3470 Transwell Plate system (0.4 μm pore diameter with 6.5 mm inserts) and HBEC-5i cells (ATCC, CRL-3245). Filter inserts were coated one day before seeding with 50 μL 0.01% rat-tail collagen type I ([…], Sigma-Aldrich) in PBS. 60,000 HBEC-5i cells in 100 μL HBEC-5i-Medium (DMEM/F12 with 10% FCS and 40 μg/mL ECGS) were seeded after aspiration of the coating-supernatant in each insert with 600 μL HBEC-5i-Medium in each receiver well. After 24 h incubation at 37 °C with 5% CO2, the medium was exchanged to 600 μL T98G cell supernatant in receiver wells and 100 μL fresh HBEC-5i-Medium in inserts. The medium exchange was repeated every second day. On day 7 after seeding, the medium in the receiver wells was replaced by 600 μL Hank's balanced salt solution (HBSS) containing 10 mM HEPES and 0.1% DMSO and 100 μL test compound mixtures (antipyrine and test compound; each at 10 μM) in HBSS containing 10 mM HEPES and 0.1% DMSO were added to inserts. After 60 min incubation, 100 μL samples were taken from the receiver wells and diluted in 400 μL (75%/25% A/B; A=Formic acid 0.1% in water; B = Acetonitrile). Test compound concentrations in the samples were determined by LC-MS/MS on an API-3200-QTrap (Sciex) equipped with an Agilent Technologies 1100 series setup including a binary pump […]), and a Shimadzu […] autosampler under the control of Analyst 1.6 (Sciex). […] B) for 6 min going to (50%:50%) after 8 min. 5 μL of aspirated supernatant diluted in mobile phase starting conditions was loaded onto the column, separated at a flow rate of 400 μL/min, and quantified per Area of MRM (multiple reaction monitoring).

VDR = biological target: T6, VDR (Homo sapiens, UniProt P11473); assay: Gal4-hybrid selectivity assay VDR; type: cell-based; conditions: 3 µM; reference agonist = 100%
T6 construct: chimeric receptors composed of the Gal4-DBD and the hinge region and LBD; expressed in transfected cells; host or cells: HEK293T
T6 sequence (P11473 127-423 limits assumed): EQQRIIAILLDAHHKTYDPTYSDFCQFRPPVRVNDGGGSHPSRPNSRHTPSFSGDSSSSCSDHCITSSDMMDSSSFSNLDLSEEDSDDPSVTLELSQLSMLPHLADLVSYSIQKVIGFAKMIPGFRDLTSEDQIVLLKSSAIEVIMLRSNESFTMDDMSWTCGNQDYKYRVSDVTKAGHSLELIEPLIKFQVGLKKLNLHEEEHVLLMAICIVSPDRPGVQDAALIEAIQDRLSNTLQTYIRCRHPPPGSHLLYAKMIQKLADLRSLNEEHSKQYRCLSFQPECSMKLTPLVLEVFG

THRα = biological target: T7, THRα (Homo sapiens, UniProt P10827); assay: Gal4-hybrid selectivity assay THRα; type: cell-based; conditions: 3 µM; reference agonist = 100%
T7 construct: chimeric receptors composed of the Gal4-DBD and the hinge region and LBD; expressed in transfected cells; host or cells: HEK293T
T7 sequence (P10827 128-410 isoform P10827-2 limits assumed): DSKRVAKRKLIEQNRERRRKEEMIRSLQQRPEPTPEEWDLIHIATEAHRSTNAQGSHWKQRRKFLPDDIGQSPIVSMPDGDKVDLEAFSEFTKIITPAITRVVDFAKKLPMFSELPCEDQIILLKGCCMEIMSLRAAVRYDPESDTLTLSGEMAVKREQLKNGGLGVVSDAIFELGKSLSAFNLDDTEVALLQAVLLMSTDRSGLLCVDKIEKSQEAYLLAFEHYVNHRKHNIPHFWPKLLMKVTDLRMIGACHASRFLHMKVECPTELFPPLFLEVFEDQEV
Protocol: as §1

% rel. act. PPARα (PPARα): 1.669% and 2.630% and 1.870%
% rel. act. PPARγ (PPARγ): 10.373% and 9.960% and 8.281%
% rel. act. LXRα (LXRα): 2.022% and 2.102% and 1.670%
% rel. act. RXRα (RXRα): 0.348% and 0.360% and 0.470%
half-life at 10 µM (Microsomal stability; male, Sprague-Dawley, pH 7.4, rat liver microsomes, 10 µM, LCMS): 6.3 ± 0.3 min
% rel. act. PPARδ (PPARδ): 4.502% and 5.181% and 2.926%
% rel. act. VDR (VDR): 4.840% and 6.730% and 2.930%
% rel. act. THRα (THRα): 0.070% and 0.082% and 0.063%
SMILES: Cc1nc2c(Cl)cccn2c1NC(=O)c1ccc(-c2ccc(N(C)C)cc2)o1 [Compound 36, N-(8-Chloro-2-methylimidazo[1,2-a]pyridin-3-yl)-5-(4-(dimethylamino)phenyl)furan-2-carboxamide]
metabolism by rat liver microsomes (route) (Microsomal stability): almost exclusively degraded by demethylation of the dimethylamino motif
AUC x10^5 (LC-MS peak area of 36 and its demethylated metabolites) (Microsomal stability; time 0 min): 7.35 x10^5 and 8.16 x10^5 and 6.56 x10^5 and 7.96 x10^5
AUC x10^5 (LC-MS peak area of 36 and its demethylated metabolites) (Microsomal stability; time 15 min): 1.47 x10^5 and 1.4 x10^5 and 1.5 x10^5 and 1.61 x10^5
logPe (BBB) [1]: -4.64 and -4.729 and -4.725 and -4.687 and -4.681 and -4.749
